This note sets out measurements from patent US7118872B2, “Binding polypeptides for B lymphocyte stimulator protein (BLyS)” (priority 2000, dated 2006).

For this assay, the target named is BLyS (Homo sapiens, UniProt Q9Y275). Put plainly: Chromatographic screening of immobilized BLyS binding polypeptides (affinity media). The following applies: peptide immobilized on SEPHAROSE 4 Fast Flow. How it is done:
A reversed phase analytical assay was used in the assessment of the chromatographic performance of the six affinity media.
All columns were tested at 200 μl/min (170 cm/hr) using a Watson/Marlow 101 ru peristaltic pump. This setup allowed free use of numerous wash, protein and elution conditions. Detection was made using a Waters 2487 UV/VIS detector at 214 nm and 280 nm connected to a Waters Millennium workstation.
The columns were then tested with an array of possible elution conditions and monitored at 214 nm and 280 nm for release of BLyS. Fractions indicating possible BLyS elution based on UV absorbance were collected and analyzed by reversed phase chromatography for confirmation.

Positions of bridges follow the written chain, without caps; N, C: chain ends. Residues, ends and D or L forms follow the SMILES beside them. No end group written: not given here.

Sequence of BLyS (Q9Y275 134-285 limits assumed): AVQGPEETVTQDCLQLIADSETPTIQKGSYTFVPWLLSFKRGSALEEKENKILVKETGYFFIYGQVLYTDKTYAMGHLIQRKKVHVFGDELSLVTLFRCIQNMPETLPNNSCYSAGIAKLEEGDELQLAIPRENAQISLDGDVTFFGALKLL

On to Ac-GYDVLTKLYFVPGGPGPEGGGK [DX219], for which the “release of BLyS from affinity media (elution condition)” value (from here on “release of BLyS from affinity media”) was “would only release BLyS in the presence of pH 2 buffer”.
Turning to `CC(=O)N[C@@H](C)C(=O)NCC(=O)N[C@@H](CCCCN)C(=O)N[C@@H](CCC(=O)O)C(=O)N1CCC[C@H]1C(=O)N[C@H]1CSSC[C@@H](C(=O)N[C@@H](C)C(=O)N[C@H](C(=O)N[C@@H](CO)C(=O)NCC(=O)N2CCC[C@H]2C(=O)NCC(=O)N2CCC[C@H]2C(=O)N[C@@H](CCC(=O)O)C(=O)NCC(=O)NCC(=O)NCC(=O)N[C@@H](CCCCN)C(=O)O)C(C)C)NC(=O)[C@H](CCC(=O)O)NC(=O)[C@H](Cc2c[nH]c3ccccc23)NC(=O)[C@H](Cc2ccc(O)cc2)NC(=O)[C@H](Cc2ccccc2)NC(=O)[C@H](Cc2ccc(O)cc2)NC1=O` [DX212] (Ac-AGKEPCYFYWECAVSGPGPEGGGK-OH; disulfide 6-12; C-terminus assumed), the “release of BLyS from affinity media” value was “released BLyS with good recoveries on elution with 50% ethylene glycol, pH 4”.
Consider `CC(=O)N[C@@H](C)C(=O)NCC(=O)N[C@H](C(=O)N1CCC[C@H]1C(=O)N[C@@H](Cc1ccccc1)C(=O)N[C@H]1CSSC[C@@H](C(=O)N[C@@H](Cc2ccccc2)C(=O)N[C@@H](CCC(=O)O)C(=O)N[C@@H](C)C(=O)NCC(=O)N2CCC[C@H]2C(=O)NCC(=O)N2CCC[C@H]2C(=O)N[C@@H](CCC(=O)O)C(=O)NCC(=O)NCC(=O)NCC(=O)N[C@@H](CCCCN)C(=O)O)NC(=O)[C@H](Cc2c[nH]cn2)NC(=O)[C@H](CCCCN)NC(=O)[C@H]([C@@H](C)O)NC(=O)[C@H](CC(C)C)NC(=O)[C@H](CC(C)C)NC(=O)[C@H](CC(=O)O)NC1=O)C(C)C` [DX214] (Ac-AGVPFCDLLTKHCFEAGPGPEGGGK-OH; disulfide 6-13; C-terminus assumed), for which the “release of BLyS from affinity media” value is recorded as “would only release BLyS in the presence of pH 2 buffer”.
In the case of Ac-WTDSLTGLWFPDGGPGPEGGGK [DX221], the “release of BLyS from affinity media” value is “would only release BLyS in the presence of pH 2 buffer”.
The same measure for `CSCC[C@@H]1NC(=O)[C@H](Cc2c[nH]cn2)NC(=O)[C@@H](NC(=O)[C@H](CC(C)C)NC(=O)[C@H](CCCNC(=N)N)NC(=O)[C@H](CO)NC(=O)[C@H](CO)NC(=O)CNC(C)=O)CSSC[C@@H](C(=O)N[C@H](C(=O)N[C@@H](Cc2c[nH]cn2)C(=O)N[C@@H](Cc2ccccc2)C(=O)N[C@@H](C)C(=O)N2CCC[C@H]2C(=O)N2CCC[C@H]2C(=O)NCC(=O)N2CCC[C@H]2C(=O)N[C@@H](CCC(=O)O)C(=O)NCC(=O)NCC(=O)NCC(=O)N[C@@H](CCCCN)C(=O)O)C(C)C)NC(=O)[C@H](C(C)C)NC(=O)[C@H](Cc2c[nH]cn2)NC(=O)[C@H]([C@@H](C)O)NC(=O)[C@H](CC(C)C)NC(=O)[C@H](CCC(=O)O)NC(=O)[C@H](CC(=O)O)NC1=O` [DX216] (Ac-GSSRLCHMDELTHVCVHFAPPGPEGGGK-OH; disulfide 6-15; C-terminus assumed): “would only release BLyS in the presence of pH 2 buffer”; for `CSCC[C@H](NC(=O)[C@@H]1CSSC[C@H](NC(=O)[C@H](CC(N)=O)NC(=O)CNC(=O)CNC(=O)[C@H](CC(=O)O)NC(=O)CNC(C)=O)C(=O)N[C@@H](Cc2ccc(O)cc2)C(=O)N[C@@H]([C@@H](C)O)C(=O)N[C@@H](CC(=O)O)C(=O)N[C@@H](CO)C(=O)N[C@@H](CC(C)C)C(=O)N[C@@H]([C@@H](C)O)C(=O)N[C@@H](CCCCN)C(=O)N[C@@H](CC(C)C)C(=O)N[C@@H](Cc2c[nH]cn2)C(=O)N[C@@H](Cc2ccccc2)C(=O)N1)C(=O)NCC(=O)N[C@@H](CC(=O)O)C(=O)N[C@@H](CCC(=O)O)C(=O)N1CCC[C@H]1C(=O)NCC(=O)N1CCC[C@H]1C(=O)N[C@@H](CCC(=O)O)C(=O)NCC(=O)NCC(=O)NCC(=O)N[C@@H](CCCCN)C(=O)O` [DX217] (Ac-GDGGNCYTDSLTKLHFCMGDEPGPEGGGK-OH; disulfide 6-17; C-terminus assumed): “would only release BLyS in the presence of pH 2 buffer”.
